pKi: −log10 of the molar value.
Experiments:
[1] = target: T1, 5-hydroxytryptamine receptor 1A (Homo sapiens, UniProt P08908); test: Displacement of [3H]-8-OH-DPAT from human 5-HT1A receptor extracted from HEK293 cell membrane by microbeta plate reader analysis; assay type: cell membranes
T1 sequence (P08908 whole entry): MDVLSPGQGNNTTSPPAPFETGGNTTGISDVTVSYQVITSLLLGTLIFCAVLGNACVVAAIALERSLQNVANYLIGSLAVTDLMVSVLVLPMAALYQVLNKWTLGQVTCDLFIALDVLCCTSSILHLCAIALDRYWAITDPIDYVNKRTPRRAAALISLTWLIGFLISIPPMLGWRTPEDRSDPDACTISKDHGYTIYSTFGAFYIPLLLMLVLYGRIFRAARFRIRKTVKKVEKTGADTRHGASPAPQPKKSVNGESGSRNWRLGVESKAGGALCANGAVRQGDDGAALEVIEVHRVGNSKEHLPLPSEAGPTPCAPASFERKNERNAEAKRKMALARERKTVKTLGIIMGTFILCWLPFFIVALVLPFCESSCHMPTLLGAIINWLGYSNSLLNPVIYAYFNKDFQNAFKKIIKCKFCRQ

[2] = target: 5-hydroxytryptamine receptor 2A (Homo sapiens, UniProt P28223); test: Displacement of [3H]-ketanserin from human 5-HT2A receptor extracted from CHO-K1 cell membrane by microbeta plate reader analysis; assay type: cell membranes
5-hydroxytryptamine receptor 2A, sequence (P28223 whole entry): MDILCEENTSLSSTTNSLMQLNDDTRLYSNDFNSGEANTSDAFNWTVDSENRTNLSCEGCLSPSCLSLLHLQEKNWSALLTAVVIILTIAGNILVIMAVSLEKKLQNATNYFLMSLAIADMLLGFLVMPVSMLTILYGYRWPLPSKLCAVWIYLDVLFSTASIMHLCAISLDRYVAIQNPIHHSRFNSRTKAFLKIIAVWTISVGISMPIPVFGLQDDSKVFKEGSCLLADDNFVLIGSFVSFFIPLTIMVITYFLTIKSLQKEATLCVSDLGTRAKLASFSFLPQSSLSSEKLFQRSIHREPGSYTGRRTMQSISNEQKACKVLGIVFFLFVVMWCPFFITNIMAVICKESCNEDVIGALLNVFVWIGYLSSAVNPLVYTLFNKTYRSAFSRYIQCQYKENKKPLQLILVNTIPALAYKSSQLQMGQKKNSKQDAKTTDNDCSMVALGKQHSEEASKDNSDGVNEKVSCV

[3] = target: 5-hydroxytryptamine receptor 7 (Homo sapiens, UniProt P34969); test: Displacement of [3H]-5-CT from human 5-HT7 receptor extracted from HEK293 cell membrane by microbeta plate reader analysis; assay type: cell membranes
5-hydroxytryptamine receptor 7, sequence (P34969 whole entry): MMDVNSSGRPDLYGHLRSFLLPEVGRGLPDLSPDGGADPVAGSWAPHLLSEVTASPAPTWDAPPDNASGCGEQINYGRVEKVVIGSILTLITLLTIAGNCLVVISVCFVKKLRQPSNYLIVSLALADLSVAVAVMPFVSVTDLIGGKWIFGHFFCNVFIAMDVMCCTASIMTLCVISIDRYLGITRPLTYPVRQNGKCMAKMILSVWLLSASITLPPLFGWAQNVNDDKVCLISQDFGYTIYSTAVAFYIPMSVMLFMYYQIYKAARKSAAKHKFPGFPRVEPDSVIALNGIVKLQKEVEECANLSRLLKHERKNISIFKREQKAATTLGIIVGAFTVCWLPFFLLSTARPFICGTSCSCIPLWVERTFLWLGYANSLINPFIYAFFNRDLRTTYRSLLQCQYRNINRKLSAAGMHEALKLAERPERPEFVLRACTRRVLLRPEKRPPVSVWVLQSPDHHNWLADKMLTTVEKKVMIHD

[4] = target: D(2) dopamine receptor (Homo sapiens, UniProt P14416); test: Displacement of [3H]-raclopride from human D2L receptor extracted from HEK293 cell membrane by microbeta plate reader analysis; assay type: cell membranes
D(2) dopamine receptor, sequence (P14416 whole entry): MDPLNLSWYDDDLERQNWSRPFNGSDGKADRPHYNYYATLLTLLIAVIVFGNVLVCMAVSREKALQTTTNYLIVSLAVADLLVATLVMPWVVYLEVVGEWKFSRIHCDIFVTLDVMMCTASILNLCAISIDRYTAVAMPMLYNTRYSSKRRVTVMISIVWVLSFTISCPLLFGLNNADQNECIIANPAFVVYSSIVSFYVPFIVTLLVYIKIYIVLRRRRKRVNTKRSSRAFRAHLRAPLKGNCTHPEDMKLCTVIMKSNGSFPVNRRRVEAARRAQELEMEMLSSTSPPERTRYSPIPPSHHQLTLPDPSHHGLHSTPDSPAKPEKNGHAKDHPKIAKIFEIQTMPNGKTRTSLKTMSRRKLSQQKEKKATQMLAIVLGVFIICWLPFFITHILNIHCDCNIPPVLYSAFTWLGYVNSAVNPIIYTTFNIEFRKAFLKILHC

[5] = Drug metabolism in rat liver microsomes assessed as hydroxylation mediated metabolite formation by UPLC-MS analysis; assay type: ADME, Microsome
[6] = target: 5-hydroxytryptamine receptor 6 (Homo sapiens, UniProt P50406)
5-hydroxytryptamine receptor 6, sequence (P50406 whole entry): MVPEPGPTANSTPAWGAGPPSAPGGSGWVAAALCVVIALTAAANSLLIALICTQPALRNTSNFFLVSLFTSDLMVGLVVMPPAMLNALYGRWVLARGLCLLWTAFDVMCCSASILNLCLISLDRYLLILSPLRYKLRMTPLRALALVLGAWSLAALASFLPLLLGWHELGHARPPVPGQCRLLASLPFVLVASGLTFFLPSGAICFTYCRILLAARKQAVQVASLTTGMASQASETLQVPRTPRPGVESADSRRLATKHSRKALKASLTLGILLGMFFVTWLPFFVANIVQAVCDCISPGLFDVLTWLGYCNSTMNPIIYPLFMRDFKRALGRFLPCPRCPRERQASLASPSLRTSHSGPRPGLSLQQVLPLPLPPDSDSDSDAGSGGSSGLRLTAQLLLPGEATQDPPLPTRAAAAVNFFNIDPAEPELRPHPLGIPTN
Description: Displacement of [3H]-LSD from human 5-HT6 receptor extracted from HEK293 cell membrane by microbeta plate reader analysis

[7] = in vitro; settings: rat, microsomes
[8] = in vitro; settings: rat, microsomes; remark: listed apart in the source
[9] = Drug metabolism in rat liver microsomes by UPLC-MS analysis; assay type: ADME, Microsome
[10] = target: hERG (KCNH2) potassium channel (Homo sapiens, UniProt Q12809); test: Inhibition of hERG potassium channel at 1 uM relative to control; assay type: toxicity
hERG (KCNH2) potassium channel, sequence (Q12809 whole entry): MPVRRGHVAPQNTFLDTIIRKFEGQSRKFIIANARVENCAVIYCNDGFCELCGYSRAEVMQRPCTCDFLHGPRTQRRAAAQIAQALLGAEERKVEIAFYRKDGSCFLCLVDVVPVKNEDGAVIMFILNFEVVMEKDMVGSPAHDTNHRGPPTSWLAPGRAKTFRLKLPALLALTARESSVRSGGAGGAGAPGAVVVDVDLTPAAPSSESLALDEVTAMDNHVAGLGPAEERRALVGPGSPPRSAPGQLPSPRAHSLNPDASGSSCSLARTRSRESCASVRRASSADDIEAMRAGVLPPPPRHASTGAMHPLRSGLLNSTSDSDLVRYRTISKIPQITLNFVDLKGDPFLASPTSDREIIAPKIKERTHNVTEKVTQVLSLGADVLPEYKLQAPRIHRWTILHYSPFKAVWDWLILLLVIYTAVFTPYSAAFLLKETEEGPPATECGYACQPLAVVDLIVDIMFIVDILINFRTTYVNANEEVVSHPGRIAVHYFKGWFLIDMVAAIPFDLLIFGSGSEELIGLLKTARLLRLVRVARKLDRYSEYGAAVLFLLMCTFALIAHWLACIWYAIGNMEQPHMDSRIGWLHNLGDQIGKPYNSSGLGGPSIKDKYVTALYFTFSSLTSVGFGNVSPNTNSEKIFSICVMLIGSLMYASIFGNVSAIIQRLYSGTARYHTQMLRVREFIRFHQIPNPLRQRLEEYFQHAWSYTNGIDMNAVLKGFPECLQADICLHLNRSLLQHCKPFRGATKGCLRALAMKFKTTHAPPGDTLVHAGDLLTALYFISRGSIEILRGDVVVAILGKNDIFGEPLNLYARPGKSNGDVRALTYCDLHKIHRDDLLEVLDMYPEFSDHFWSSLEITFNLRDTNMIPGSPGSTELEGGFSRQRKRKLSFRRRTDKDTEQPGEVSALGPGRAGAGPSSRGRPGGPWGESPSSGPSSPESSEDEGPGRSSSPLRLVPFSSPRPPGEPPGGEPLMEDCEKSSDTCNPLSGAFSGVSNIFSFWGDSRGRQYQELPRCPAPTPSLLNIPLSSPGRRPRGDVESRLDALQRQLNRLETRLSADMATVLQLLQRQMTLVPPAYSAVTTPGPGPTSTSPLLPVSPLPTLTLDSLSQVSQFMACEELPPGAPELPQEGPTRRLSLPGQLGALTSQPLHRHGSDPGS

[11] = target: CYP3A4 (Homo sapiens, UniProt P08684); test: Inhibition of CYP3A4 (unknown origin) at 10 uM relative to control; assay type: ADME
CYP3A4, sequence (P08684 whole entry): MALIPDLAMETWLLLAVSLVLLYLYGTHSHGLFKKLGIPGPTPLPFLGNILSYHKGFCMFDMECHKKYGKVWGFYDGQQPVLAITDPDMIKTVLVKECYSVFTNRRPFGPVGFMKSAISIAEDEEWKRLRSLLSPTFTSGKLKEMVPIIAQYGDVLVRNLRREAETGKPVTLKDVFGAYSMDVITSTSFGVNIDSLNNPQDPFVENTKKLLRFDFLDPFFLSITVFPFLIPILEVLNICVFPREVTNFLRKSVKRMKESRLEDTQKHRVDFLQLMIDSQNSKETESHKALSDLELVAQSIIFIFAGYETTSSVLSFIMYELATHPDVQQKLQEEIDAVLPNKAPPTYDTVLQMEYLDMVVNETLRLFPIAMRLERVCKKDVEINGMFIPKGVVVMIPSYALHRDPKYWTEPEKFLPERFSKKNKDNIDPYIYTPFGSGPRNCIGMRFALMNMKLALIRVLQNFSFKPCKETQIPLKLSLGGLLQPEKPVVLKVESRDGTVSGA

[12] = Cytotoxicity against human SH-SY5Y cells incubated for 3 hrs by MTT assay; assay type: toxicity, cell-based
[13] = Cytotoxicity against rat PC12 cells incubated for 3 hrs by MTT assay; assay type: toxicity, cell-based, PC-12
[14] = Cytotoxicity against mouse C8D1A cells incubated for 3 hrs by MTT assay; assay type: toxicity, cell-based, C8-D1A
[15] = Cytotoxicity against human astrocytes incubated for 3 hrs by MTT assay; assay type: toxicity, cell-based, Astrocyte

pKi [1]	pKi [2]	pKi [3]	pKi [4]	Drug metabolism [5]	pKi [6]	half-life at 1 h, 10 µM [7]	microsomal CLint at 1 h, 10 µM [8]	Drug metabolism [9]	inhibition at 10 µM [11]	Compound	inhibition at 1 µM [10]	IC50 at 3 h [12]	IC50 at 3 h [13]	IC50 at 3 h [14]	IC50 at 3 h [15]
6.12	6.39	4.91	5.66	Metabolite_Detected	9.00	83.6 min	24.9 µL/min/mg	–	–	O=S(=O)(c1cccc(N2CCNCC2)c1)n1cccc1-c1ccccc1	–	–	–	–	–
4.39	5.81	5.70	4.97	Metabolite_Detected	8.40	101 min	20.6 µL/min/mg	–	–	O=S(=O)(c1cccc(NC2CCNCC2)c1)n1cccc1-c1ccccc1	–	–	–	–	–
6.04	6.18	4.93	5.28	–	9.00	36.7 min	56.7 µL/min/mg	Metabolite_Notdetected	–	COc1cccc(-c2cccn2S(=O)(=O)c2cccc(N3CCNCC3)c2)c1	–	–	–	–	–
4.16	4.98	4.08	5.11	–	–	–	–	–	–	O=C(NC1CCNCC1)c1ccn(S(=O)(=O)c2cccc(Cl)c2)c1-c1cccc(F)c1	–	–	–	–	–
5.61	4.80	5.88	5.57	Metabolite_Detected	7.57	15.3 min	109 µL/min/mg	–	–	O=S(=O)(c1ccccc1)n1cccc1-c1cccc(N2CCNCC2)c1	–	–	–	–	–
5.74	5.60	4.94	5.36	–	9.00	49.3 min	32.4 µL/min/mg	Metabolite_Notdetected	94%	O=S(=O)(c1cccc(N2CCNCC2)c1)n1cccc1-c1cccc(F)c1	8%	18500 nM	25600 nM	37400 nM	39300 nM
